The values below come from the supplement of paper PMC10331698.

Compound in test [1]: T1, C=CC(=O)OCC(F)(F)C(F)(F)C(F)(F)COC(=O)C=C [1H,1H,5H,5H-Perfluoro-1,5-pentanediol diacrylate]
Nature of the test: LOEC (log10 uM (lowest observed effect concentration)). The protocol: (§1)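 BioMAP Diversity Plus panel in human primary cell co-cultures, 4 concentrations in duplicate blinded samples. Responses are log10 fold change versus DMSO control, processed with tcpl v2.1.0. A hit is called when responses at any concentration exceed the cutoff (the larger of 3*bmad or log10(1.2)); the lowest observed effect concentration (modl_ga, log10 uM) is reported for hits.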

Compound in test [2]: T2, O=C(O)C(F)(F)C(F)(F)C(F)(F)C(F)(F)C(F)(F)C(F)(F)C(F)(F)C(F)(F)C(F)(F)C(F)F [11-H-Perfluoroundecanoic acid]
The description is as above. The protocol:
as §1

Compound in test [3]: T2, 11-H-Perfluoroundecanoic acid
Nature of the test: level (log10 ratio to DMSO vehicle control); higher = higher biomarker level / cell amount than vehicle control. The note with it: in DMSO. The protocol: (§2)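 BioMAP Diversity Plus panel of 12 human primary cell co-culture systems (3C, 4H, LPS, SAg, BT, BF4T, BE3C, CASM3C, HDF3CGF, KF3CT, MyoF, Mphg). Compounds were added 1 h before stimulation and left for 24 h (MyoF 48 h; BT 72 h for soluble read-outs or 6 d for IgG). Biomarkers were read by ELISA, cytotoxicity by SRB, PBMC viability and proliferation by Alamar Blue. Each well value was divided by the mean of 8 DMSO control wells on the same plate and log10 transformed; duplicate blinded samples were tested at 4 concentrations.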

Compound in test [4]: T1, 1H,1H,5H,5H-Perfluoro-1,5-pentanediol diacrylate
The description is as above. The note with it: 6700 nM; in DMSO. The protocol:
as §2

Compound in test [5]: NS(=O)(=O)C(F)(F)C(F)(F)C(F)(F)C(F)(F)C(F)(F)C(F)(F)F [Perfluorohexanesulfonamide]
Described as above. The settings on record: in DMSO. The protocol: as §2

Compound in test [6]: O=S(=O)(O)CCC(F)(F)C(F)(F)C(F)(F)C(F)(F)C(F)(F)C(F)(F)F [6:2 Fluorotelomer sulfonic acid]
The test is described as above. The settings on record: in DMSO. The protocol:
as §2

Compound in test [7]: OCC(F)(F)C(F)(F)C(F)(F)CO [Hexafluoroamylene glycol]
Described as above. The note with it: in DMSO. The protocol: as §2

Compound in test [8]: COC(=O)C(F)(F)C(F)(F)OC(F)(C(F)(F)F)C(F)(F)OC(F)=C(F)F [Methyl perfluoro(3-(1-ethenyloxypropan-2-yloxy)propanoate)]
Described as above. The settings on record: in DMSO. The protocol:
as §2

Compound in test [9]: FC(F)(F)C(F)(F)CNCC(F)(F)C(F)(F)F [Bis(1H,1H-perfluoropropyl)amine]
The description is as above. The settings on record: in DMSO. The protocol: as §2

Compound in test [10]: O=S(=O)(O)C(F)(F)C(F)(F)C(F)(F)C(F)(F)C(F)(F)C(F)(F)C(F)(F)C(F)(F)C(F)(F)C(F)(F)F [Sodium perfluorodecanesulfonate]
The test is described as above. The settings on record: in DMSO. The protocol:
as §2

Compound in test [11]: O=C(O)C=CC(F)(C(F)(F)F)C(F)(F)F [3-(Perfluoroisopropyl)-2-propenoic acid]
The test is described as above. The settings on record: in DMSO. The protocol: as §2

Compound in test [12]: C=C(C)C(=O)OCCC(F)(F)C(F)(F)C(F)(F)C(F)(F)C(F)(F)C(F)(F)F [6:2 Fluorotelomer methacrylate]
The description is as above. The settings on record: in DMSO. The protocol:
as §2

Compound in test [13]: FC(F)(F)C(F)(F)C(F)(F)C(F)(F)C(F)(F)C(F)(F)CC1CO1 [3-(Perfluorohexyl)-1,2-epoxypropane]
The test is described as above. The settings on record: in DMSO. The protocol: as §2

Compound in test [14]: FC(F)(F)C(F)(F)C(F)(F)CI [Heptafluorobutyl iodide]
The test is described as above. The settings on record: in DMSO. The protocol: as §2

Compound in test [15]: NC(=O)C(F)(F)C(F)(F)C(F)(F)C(F)(F)C(N)=O [Octafluoroadipamide]
The description is as above. The settings on record: in DMSO. The protocol:
as §2

Compound in test [16]: FC(F)(F)C(F)(F)C(F)(F)CC1CO1 [1H,1H-Heptafluorobutyl epoxide]
The description is as above. The note with it: in DMSO. The protocol:
as §2

Compound in test [17]: NC(=O)C(F)(F)C(F)(F)C(F)(F)C(F)F
Described as above. The settings on record: in DMSO. The protocol:
as §2

Compound in test [18]: O=S(=O)(F)C(F)(F)C(F)(F)C(F)(F)C(F)(F)C(F)(F)C(F)(F)C(F)(F)C(F)(F)F [Perfluorooctanesulfonyl fluoride]
The description is as above. The note with it: in DMSO. The protocol: as §2

Compound in test [19]: NC(=O)C(F)(F)C(F)(F)C(F)(F)C(F)(F)F [Nonafluoropentanamide]
The test is described as above. The note with it: in DMSO. The protocol: as §2

Compound in test [20]: FC(F)(F)C(F)(F)C(F)(F)C(F)(F)C(F)(F)C(F)(F)C(F)(F)I [1-Iodopentadecafluoroheptane]
The description is as above. The note with it: in DMSO. The protocol: as §2

Compound in test [21]: O=S(=O)(Cl)C(F)(F)C(F)(F)C(F)(F)C(F)(F)C(F)(F)C(F)(F)C(F)(F)C(F)(F)F [Perfluoro-1-octanesulfonyl chloride]
The description is as above. The note with it: in DMSO. The protocol:
as §2

± gives the standard deviation of the averaged measurements.

With MyoF Decorin down, in [1], the “LOEC (log10 uM)” value was 1.3. Same read-out and setting: to MyoF bFGF down belongs 1.3; to KF3CT ICAM1 down, 1.07 ± 0.32; to MyoF IL8 down, 1.3.

With 3C TissueFactor down, in test [1], the “LOEC (log10 uM)” value turned out to be 0.845.

On to CASM3C PAI1 down, for which, in test [1], the “LOEC (log10 uM)” value amounted to 1.78. On the same count and under the same terms, as for hDFCGF MMP1 down, the figure is 0.845; as for BT PBMCCytotoxicity down, 0.573 ± 0.39. Same read-out and setting: to CASM3C Thrombomodulin up belongs 1.3; to 3C MIG down, 1.3; to CASM3C MCP1 down, 1.78. On the same count and under the same terms, as for BT xIL17A down, the figure is 0.845. As to hDFCGF TIMP1 down, the “LOEC (log10 uM)” value in [1] amounted to 0.573 ± 0.39. Turning to BE3C Keratin818 down, in [2], the “LOEC (log10 uM)” value amounted to 1.54 ± 0.34. Consider CASM3C MIG down, for which the “LOEC (log10 uM)” value in test [1] was 0.845. Same read-out and setting: to 3C VCAM1 down belongs 0.845.

In the case of SAg PBMCCytotoxicity down, the “LOEC (log10 uM)” value in [1] amounted to 0.845. On the same count and under the same terms, as for 4H MCP1 down, the figure is 1.3; as for BT xTNFa down, 0.301.

As to hDFCGF ICAM1 down, the “LOEC (log10 uM)” value in test [1] was 0.301. In the case of 3C ICAM1 down, in test [1], the “LOEC (log10 uM)” value turned out to be 1.3. The same measure, in the same setting: to KF3CT TIMP2 down belongs 1.78; to SAg MIG down, 1.3. In the case of CASM3C VCAM1 down, the “LOEC (log10 uM)” value in test [1] was 0.845. With IMphg SRB down, the “LOEC (log10 uM)” value in test [2] came out at 1.78.

As to CASM3C Proliferation down, the “LOEC (log10 uM)” value in test [1] amounted to 0.573 ± 0.39. On the same count and under the same terms, to KF3CT IL8 down belongs 1.3; to 3C Eselectin down, 0.573 ± 0.39. Same read-out and setting: to IMphg IL8 down belongs 1.78. Take LPS MCSF down: the “LOEC (log10 uM)” value in test [1] was determined as 1.3.

As to 4H Pselectin down, the “LOEC (log10 uM)” value in [1] was determined as 1.3. Still for that read-out and setting: to LPS TissueFactor down belongs 1.07 ± 0.32; to BT xIL2 down, 0.845. Same read-out and setting: to 4H uPAR down belongs 1.04 ± 1; to 3C IL8 down, 1.3; to hDFCGF SRB down, 0.573 ± 0.39. In the case of LPS IL8 down, the “LOEC (log10 uM)” value in [1] was 1.3.

For MyoF TIMP1 down, the “LOEC (log10 uM)” value in [1] stood at 1.3. Still for that read-out and setting: as for CASM3C MCSF down, the figure is 1.3.

For the test system BT Bcell Proliferation down, the “LOEC (log10 uM)” value in test [1] stood at 0.845.

Regarding LPS IL1a down, in [1], the “LOEC (log10 uM)” value was 1.3. Same read-out and setting: as for CASM3C LDLR down, the figure is 1.78.

Turning to CASM3C SAA down, in test [1], the “LOEC (log10 uM)” value was found to be 1.78. Regarding CASM3C IL6 down, the “LOEC (log10 uM)” value in test [1] amounted to 1.3. Turning to hDFCGF IL8 down, in test [1], the “LOEC (log10 uM)” value is 0.845. The same measure, in the same setting: to BT xIL17F down belongs 0.301; to BT sIgG down, 0.845; to CASM3C SRB down, 1.54 ± 0.34. Still for that read-out and setting: as for CASM3C uPAR down, the figure is 1.78; as for CASM3C HLADR down, 1.3.

For the test system IMphg MIP1a down, the “LOEC (log10 uM)” value in test [1] amounted to 1.78. On the same count and under the same terms, to CASM3C IL8 down belongs 1.3. On the same count and under the same terms, as for BT xIL6 down, the figure is 0.573 ± 0.39. With HDF3CGF:CCL2/MCP-1, the “level (log10)” value in [3] (6700 nM) was 0.0125 ± 0.0064; in [3] (20000 nM), -0.065 ± 0.014; in test [4], -1.14 ± 0.03; in [5] (6700 nM), 0.0185 ± 0.016; in [5] (20000 nM) it was 0.047 ± 0.018; in test [5] (60000 nM), 0.091 ± 0.014. Also, the “level (log10)” value was 0.0075 ± 0.019 in [6] (6700 nM); 0.0085 ± 0.021 in test [6] (20000 nM); 0.008 ± 0.014 in test [6] (60000 nM); -0.003 ± 0.0071 in [7] (6700 nM); -0.004 ± 0.0057 in [7] (20000 nM); 0.007 ± 0.0071 in test [7] (60000 nM). For the same test system, the “level (log10)” value is 0.023 ± 0.0042 in test [8] (6700 nM); 0.0305 ± 0.029 in [8] (20000 nM); -0.032 ± 0.023 in [9] (6700 nM); -0.021 ± 0.011 in [9] (20000 nM); 0.014 ± 0.031 in [9] (60000 nM); -0.0105 ± 0.05 in test [10] (1500 nM). Besides, the “level (log10)” value in test [10] (4400 nM) was -0.018 ± 0.035; in [10] (13000 nM) it was 0.0415 ± 0.025; in test [10] (40000 nM) it was 0.112 ± 0.0099; in test [11] (6700 nM), -0.006 ± 0.018; in [11] (20000 nM) it was 0.006 ± 0.0085; in test [11] (60000 nM) it was 0.017 ± 0.017. For the same test system, the “level (log10)” value in test [12] (6700 nM) was -0.0445 ± 0.0092; in test [12] (20000 nM), -0.0295 ± 0.005; in test [12] (60000 nM), -0.048 ± 0.0028; in test [13] (6700 nM), -0.0165 ± 0.0021; in [13] (20000 nM), -0.0045 ± 0.019; in [13] (60000 nM), 0.0055 ± 0.03. For the same test system, the “level (log10)” value in [14] (6700 nM) was -0.01 ± 0.0057; in [14] (20000 nM), -0.013 ± 0.0057; in [14] (60000 nM), -0.0025 ± 0.025; in test [15] (6700 nM) it was 0.003; in test [15] (20000 nM), -0.019 ± 0.028; in test [15] (60000 nM), -0.0115 ± 0.005. Also, the “level (log10)” value in test [16] (6700 nM) was -0.0325 ± 0.032; in test [16] (20000 nM) it was -0.034 ± 0.02; in test [16] (60000 nM), -0.02 ± 0.0099; in test [17] (6700 nM), -0.017 ± 0.054; in test [17] (20000 nM), -0.004 ± 0.04; in test [17] (60000 nM), 0.0095 ± 0.028. For the same test system, the “level (log10)” value in test [18] (6700 nM) is -0.0035 ± 0.028; in test [18] (20000 nM), 0.007 ± 0.023; in test [18] (60000 nM), -0.007 ± 0.072; in test [19] (6700 nM), -0.0025 ± 0.019; in test [19] (20000 nM), 0.0065 ± 0.012; in [19] (60000 nM), 0.01 ± 0.035. Also, the “level (log10)” value in test [20] (6700 nM) was -0.0205 ± 0.025; in [20] (20000 nM) it was -0.0335 ± 0.0035; in test [21] (6700 nM), -0.026 ± 0.038; in test [21] (20000 nM), -0.0505 ± 0.021; in test [21] (60000 nM) it was -0.0235 ± 0.028.
